“And” between values parts separate entries of the source, which are not always exact repeats. Identical values can stand only once.
Legend:
[1] = tested on: MCF7 breast adenocarcinoma; assay: MTT assay, MCF7; type: cell-based; settings: MCF7, 10 μM, 48 h
Experimental: (§1) To evaluate the cytotoxicity of the novel USP‐7 inhibitors, compounds 1a–d were preliminary screened at a fixed concentration of 10 μM against eight different cancer cell lines (namely, MCF7 breast adenocarcinoma, SKOV‐3 ovarian adenocarcinoma, Hep‐G2 hepatocellular carcinoma, SK‐Mel28 cutaneous melanoma, MDA‐MB‐231 breast adenocarcinoma, SK‐BR3 breast adenocarcinoma, HeLa cervix epithelioid carcinoma, and A549 lung adenocarcinoma) as well as nonmutated human embryonic fibroblasts (GM‐6114). Cisplatinum (Cis‐Pt) was used as the reference compound.
(§2) To perform the MTT assay, SK‐BR3 (breast adenocarcinoma, Biologic Bank and Cell Factory, IRCCS Policlinico San Martino, Genoa, Italy), MCF‐7 (breast adenocarcinoma, Biologic Bank and Cell Factory, IRCCS Policlinico San Martino, Genoa, Italy), SK‐Mel28 (skin melanoma, Biologic Bank and Cell Factory, IRCCS Policlinico San Martino, Genoa, Italy), Hep‐G2 (hepatocellular carcinoma, ATCC, Manassas, VA), SKOV‐3 (ovarian adenocarcinoma, ATCC, Manassas, VA), MDA‐MB‐231 (breast adenocarcinoma, Biologic Bank and Cell Factory, IRCCS Policlinico San Martino, Genoa, Italy), HeLa (cervical adenocarcinoma, Biologic Bank and Cell Factory, IRCCS Policlinico San Martino, Genoa, Italy), A549 (lung adenocarcinoma, ATCC, Manassas, VA), and GM‐6114 (normal human embryonic fibroblast, ATCC, Manassas, VA) cell lines were cultured in Dulbecco's modified eagle medium (DMEM added with 10% Fetal bovine serum, 2 mM Glutamine, and 1% pen‐strep) and incubated in a humidified environment at 37 °C with 5% CO2. Reagents were acquired from EuroClone (Milan, Italy). All chemical compounds were dissolved in DMSO to give a 10 mM stock solution. Then, after an intermediate dilution in growth medium, they were added to the cultured cells at a final working concentration of 10 μM and incubated for 48 h. At the end of the incubation, 30 μL of MTT (3‐(4,5‐dimethyl‐2‐thiazolyl)‐2,5‐diphenyl‐2H‐tetrazolium bromide) at a concentration of 2 mg mL^−1 in phosphate buffered saline (PBS) were added into each well and further incubated for 4 h. Finally, the supernatants were removed and 100 μL well of DMSO were added to each well to dissolve the Formazan precipitates. After 20 min, plates were read at 570 nm. Results are expressed as the percentage of the control samples where cells have been treated with the same amount of DMSO but without any chemical compound. The assay was repeated three times, and a single compound was tested six times. Means and standard deviations were calculated.

[2] = tested on: SK‐Mel28 cutaneous melanoma; assay: MTT assay, SK‐Mel28; type: cell-based; settings: SK‐Mel28, 10 μM, 48 h
Experimental: as §1, §2

[3] = tested on: SK‐BR3 breast adenocarcinoma; assay: MTT assay, SK‐BR3; type: cell-based; settings: SK‐BR3, 10 μM, 48 h
Experimental: as §1, §2

[4] = tested on: MDA‐MB‐231 breast adenocarcinoma; assay: MTT assay, MDA‐MB‐231; type: cell-based; settings: MDA‐MB‐231, 10 μM, 48 h
Experimental: as §1, §2

[5] = tested on: HeLa cervix epithelioid carcinoma; assay: MTT assay, HeLa; type: cell-based; settings: 10 μM, 48 h
Experimental: as §1, §2

[6] = tested on: SKOV‐3 ovarian adenocarcinoma; assay: MTT assay, SKOV‐3; type: cell-based; settings: SKOV‐3, 10 μM, 48 h
Experimental: as §1, §2

[7] = tested on: Hep‐G2 hepatocellular carcinoma; assay: MTT assay, Hep‐G2; type: cell-based; settings: Hep‐G2, 10 μM, 48 h
Experimental: as §1, §2

[8] = tested on: A549 lung adenocarcinoma; assay: MTT assay, A549; type: cell-based; settings: A549, 10 μM, 48 h
Experimental: as §1, §2

[9] = tested on: nonmutated human embryonic fibroblasts (GM‐6114); assay: MTT assay, GM‐6114; type: cell-based; settings: GM‐6114 healthy fibroblasts, 10 μM, 48 h
Experimental: as §1, §2

[10] = target: T1, recombinant USP‐7 (Homo sapiens, UniProt Q93009); assay: USP‐7 fluorescence-based enzymatic assay (Ub‐AMC); type: biochemical; settings: recombinant USP‐7, Ubiquitin–AMC substrate, 30 min preincubation; average of three separate experiments
T1 construct: purchased BPS Bioscience 79,256
T1 sequence (Q93009 whole entry): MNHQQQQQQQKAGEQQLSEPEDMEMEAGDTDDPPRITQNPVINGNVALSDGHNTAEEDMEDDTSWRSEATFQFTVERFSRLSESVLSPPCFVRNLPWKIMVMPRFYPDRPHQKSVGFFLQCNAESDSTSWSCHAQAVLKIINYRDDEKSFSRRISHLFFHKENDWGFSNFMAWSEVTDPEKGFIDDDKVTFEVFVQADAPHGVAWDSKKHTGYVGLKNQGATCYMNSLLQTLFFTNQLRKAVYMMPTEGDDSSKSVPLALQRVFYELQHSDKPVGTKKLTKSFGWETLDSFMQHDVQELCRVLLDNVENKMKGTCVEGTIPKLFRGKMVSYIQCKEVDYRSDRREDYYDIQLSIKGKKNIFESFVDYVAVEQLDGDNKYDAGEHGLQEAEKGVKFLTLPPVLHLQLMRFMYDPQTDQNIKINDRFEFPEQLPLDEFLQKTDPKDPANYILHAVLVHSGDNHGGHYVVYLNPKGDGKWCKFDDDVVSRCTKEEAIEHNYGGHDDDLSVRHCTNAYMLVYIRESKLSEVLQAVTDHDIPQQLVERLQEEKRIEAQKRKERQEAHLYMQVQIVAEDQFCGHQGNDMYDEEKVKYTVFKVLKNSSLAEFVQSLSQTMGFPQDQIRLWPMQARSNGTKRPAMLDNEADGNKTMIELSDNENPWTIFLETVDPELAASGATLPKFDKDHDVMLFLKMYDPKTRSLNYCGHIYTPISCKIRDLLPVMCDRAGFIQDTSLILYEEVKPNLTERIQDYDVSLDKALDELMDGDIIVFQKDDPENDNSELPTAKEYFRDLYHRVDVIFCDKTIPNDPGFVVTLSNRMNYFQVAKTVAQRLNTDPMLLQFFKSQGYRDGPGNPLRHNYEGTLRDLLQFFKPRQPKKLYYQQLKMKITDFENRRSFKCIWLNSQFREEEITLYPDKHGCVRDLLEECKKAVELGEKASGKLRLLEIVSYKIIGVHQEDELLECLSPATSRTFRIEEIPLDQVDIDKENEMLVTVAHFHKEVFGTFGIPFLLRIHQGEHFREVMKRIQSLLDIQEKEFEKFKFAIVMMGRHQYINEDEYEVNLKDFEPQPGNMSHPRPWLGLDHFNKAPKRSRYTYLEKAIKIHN
Experimental: The inhibition efficiency of compounds 1a–d and 2a–d on the USP‐7 enzyme was assessed using a fluorescence‐based enzymatic assay, employing Ubiquitin–AMC as a substrate. In this assay, USP‐7 hydrolyzes Ubiquitin–AMC, leading to an increase in fluorescence signal. To evaluate the inhibitory potential, recombinant USP‐7 was preincubated with varying concentrations of the test compounds before adding the substrate, and fluorescence intensity was subsequently measured. […] Additionally, the elongation of the side chain in compounds 2a–d completely abolished the activity.
In vitro enzymatic inhibition was measured using the USP‐7 inhibitor screening assay kit (catalog #79,256, BPS Bioscience, San Diego, CA, USA) according to the manufacturer's instructions. Briefly, compound stock solutions were prepared in DMSO and diluted tenfold to obtain the working solutions. Then, these solutions and the vehicle control were added to the black 384‐wells plate, together with the USP‐7 enzyme, previously diluted as required by the manufacturer, and incubated at rt for 30 min. Then, the Ub‐AMC substrate was diluted 400‐fold and added to the plate, followed by incubation at rt for 30 min. The final DMSO amount in each well was 1%.

[11] = Parallel artificial membrane permeability assay (PAMPA); type: in vitro ADME; settings: for LogPe ± SD: PBS pH 7.4, 5 h
Experimental: The assay was prepared as follows: 300 μL of PBS pH 7.4 (5% DMSO) was placed in the acceptor wells. A phosphatidylcholine (PC) solution was obtained by dissolving and vortexing PC at 1% w/v in dodecane and solubilized using an ultrasound bath until a clear solution was obtained. […] of this solution was deposited on the membrane portion of the donor well. 150 μL of each molecule, at 100–250 μM final concentration (5% DMSO), was pipetted in the […]. The acceptor (Multiscreen transport Receiver Plate, 96‐well, polystyrene, Millipore) and donor plates (Multiscreen Filter Plates, IP, […], clear, hydrophobic PVDF, Millipore) were subsequently assembled and incubated for 5 h under gentle orbital shaking. The experiment was conducted in duplicate. Lucifer yellow was used as a negative control to establish the integrity of the membrane, quantifying its concentration in both acceptor and donor solutions using fluorescence. […] The results are expressed as means ± SEM of at least three independent experiments.

[12] = tested on: neuroblastoma HTLA‐230 cells; design: method as in PMID 36780313; settings: cited from earlier work
[13] = tested on: USP‐7; design: method as in PMID 37298148; settings: in vitro and in‐cell assays, neuroblastoma‐related cells; cited from earlier work

Compound	IC50 [10]	LogPe ± SD ([11]; 100 μM)	LogPe ± SD ([11]; 250 μM)	membrane permeability (in words) ([11]; 100 and 250 μM)	Cell growth percent [%] [1]	Cell growth percent [%] [2]	Cell growth percent [%] [3]	Cell growth percent [%] [4]	Cell growth percent [%] [5]	Cell growth percent [%] [6]	Cell growth percent [%] [7]	Cell growth percent [%] [8]	Cell growth percent [%] [9]	inhibition of migratory ability [12]	inhibition of USP‐7 enzymatic activity and expression levels [13]
N.N.[Cl][Pt][Cl] [Cis ‐Pt, Cisplatinum, reference compound]	–	–	–	–	72.74%	44.40%	70.59%	86.07%	29.33%	26.83%	38.07%	59.09%	–	–	–
CCOC(=O)c1cnn(CC(C)OC(=O)Nc2ccccc2F)c1N (stereo not drawn) [Compound 1a, Ethyl 5‐Amino‐1‐(2‐(((2‐Fluorophenyl)Carbamoyl)Oxy)Propyl)‐1H‐Pyrazole‐4‐Carboxylate]	2.19 ± 0.49 µM	–	–	–	109.46%	95.28%	98.76%	106.29%	105.06%	102.26%	97.50%	104.43%	105.96%	–	–
CCOC(=O)c1cnn(CC(C)OC(=O)Nc2ccc(F)cc2)c1N (stereo not drawn) [Compound 1c, Ethyl 5‐Amino‐1‐(2‐(((4‐Fluorophenyl)Carbamoyl)Oxy)Propyl)‐1H‐Pyrazole‐4‐Carboxylate]	1.8 ± 0.39 µM	–	–	–	108.02%	88.22%	101.55%	103.39%	108.28%	99.94%	100.11%	114.96%	112.09%	–	–
CCOC(=O)c1cnn(CC(C)OC(=O)Nc2cccc(C(F)(F)F)c2)c1N (stereo not drawn) [Compound 1d, Ethyl 5‐Amino‐1‐(2‐(((3‐(Trifluoromethyl)Phenyl)Carbamoyl)Oxy)Propyl)‐1H‐Pyrazole‐4‐Carboxylate]	1.31 ± 0.21 µM	−4.54 ± 0.02	−4.81 ± 0.00	highly permeable	113.85%	90.77%	95.04%	119.94%	106.40%	99.40%	100.73%	90.69%	96.18%	–	–

Further lines, with some results ahead:

IC50 [10]	LogPe ± SD ([11]; 100 μM)	LogPe ± SD ([11]; 250 μM)	membrane permeability (in words) ([11]; 100 and 250 μM)	Compound	Cell growth percent [%] [1]	Cell growth percent [%] [2]	Cell growth percent [%] [3]	Cell growth percent [%] [4]	Cell growth percent [%] [5]	Cell growth percent [%] [6]	Cell growth percent [%] [7]	Cell growth percent [%] [8]	Cell growth percent [%] [9]	inhibition of migratory ability [12]	inhibition of USP‐7 enzymatic activity and expression levels [13]
1.48 ± 0.31 µM	–	–	–	CCOC(=O)c1cnn(CC(C)OC(=O)Nc2cccc(F)c2)c1N (stereo not drawn) [Compound 1b, Ethyl 5‐Amino‐1‐(2‐(((3‐Fluorophenyl)Carbamoyl)Oxy)Propyl)‐1H‐Pyrazole‐4‐Carboxylate]	104.08%	115.09%	135.91%	73.53%	95.63%	98.78%	95.70%	39% and 39.06%	68.07%	–	–
2.77 ± 0.56 µM	–	–	–	CCOC(=O)c1cnn(CC(C)O)c1NC(=O)Nc1cccc(F)c1 (stereo not drawn) [STIRUR‐41, reference compound]	110.71%	94.26%	97.17%	64.32%	99.83%	100.50%	111.36%	38.88%	38.50%	significant inhibition	inhibit both the enzymatic activity of USP‐7 and its expression levels

— article PMC12368478, “Targeting Ubiquitin‐Specific Protease 7 with Novel 5‐Amino‐Pyrazole Inhibitors: Design, Synthesis, and Biological Evaluation” (Chemmedchem, 2025)
